Test results taken from US4325947A (priority 1981, dated 1982).
≈ marks a conversion by molar mass, not a printed value. Where “and” joins values, the source holds several entries; their conditions need not be identical. Equal values may be shown once. Read-outs that look alike come from different tables or passages of the source.

Key:
[1] = test system: P388 ascitic leukemia; experiment: Activity against P388 ascitic leukemia in mice, ip
Method: Activity against P388 ascitic leukemia^1
^1 Mice were injected ip with 10^6 leukemia cells/mouse. Data of
^2 Treatment ip on day 1 after tumor inoculum.
(§1) ^3 Medium survival time of treated animals/medium survival time of […]

[2] = test system: L1210 leukemia
Excerpt: as §1

[3] = test system: Gross leukemia; experiment: Activity against disseminated Gross leukemia in mice, i.v. and oral; conditions: for T/C % (survival time treated/controls × 100) / Toxic deaths: day 1
Excerpt: as §1

[4] = test system: HeLa cells; experiment: HeLa cells cloning efficiency in vitro, treatment for 24 hours; conditions: for IC50: read-out: ID50
[5] = test system: experimental leukemias; experiment: In vivo antitumor activity/potency versus doxorubicin (general statements); parameters: species or system mice
Excerpt: In vivo the compound has been compared to doxorubicin against three different experimental leukemias of mice.

[6] = Homo sapiens, HeLa, 24 h, read-out: % of controls (HeLa cells cloning efficiency)

## COc1cccc2c1C(=O)c1c(O)c3c(c(O)c1C2=O)C[C@@](O)(C(=O)CO)C[C@@H]3O[C@H]1C[C@H](N)[C@H](O)[C@H](C)O1 [Doxorubicin, doxorubicin, reference compound]
[1]; 4.4 mg/kg ip on day 1
  T/C % (survival time treated/controls × 100): 210% and 180%
  Toxic deaths: 0/16
[1]; 6.6 mg/kg ip on day 1
  T/C % (survival time treated/controls × 100): 220% and 190%
  Toxic deaths: 0/16
[1]; 10.0 mg/kg ip on day 1
  T/C % (survival time treated/controls × 100): 225% and 220%
  Toxic deaths: 0/16
[2]; 10 mg/kg iv on day 1
  T/C % (survival time treated/controls × 100): 133%
  Toxic deaths: 0/10
[2]; 13 mg/kg iv on day 1
  T/C % (survival time treated/controls × 100): 150%
  Toxic deaths: 0/9
[2]; 16.9 mg/kg iv on day 1
  T/C % (survival time treated/controls × 100): 166%
  Toxic deaths: 1/10
[3]; i.v. 13 mg/kg
  T/C % (survival time treated/controls × 100): 200%
  Toxic deaths: 0/18
[3]; i.v. 16.9 mg/kg
  Toxic deaths: 0/18
[3]; i.v. 16.9 mg/kg, 16.9 mg/kg
  T/C % (survival time treated/controls × 100): 233% and 216%
[4]; [6]
  activity at 0.0031 µg/mL: 102%
  activity at 0.0062 µg/mL: 68%
  activity at 0.0125 µg/mL: 44%
[4]; Homo sapiens, HeLa, 24 h
  IC50: ~10 ng/mL (≈ 18.4 nM)

## C[C@H]1C[C@@H](N)C[C@H](O[C@H]2C[C@](O)(C(=O)CO)Cc3c(O)c4c(c(O)c32)C(=O)c2ccccc2C4=O)O1 [XOO-0144, 4-demethoxy-4'-deoxydoxorubicin]
[1]; 0.04 mg/kg ip on day 1
  T/C % (survival time treated/controls × 100): 130%
[1]; 0.12 mg/kg ip on day 1
  T/C % (survival time treated/controls × 100): 170%
[1]; 0.25 mg/kg ip on day 1
  T/C % (survival time treated/controls × 100): 205% and 195%
[1]; 0.5 mg/kg ip on day 1
  T/C % (survival time treated/controls × 100): 235%
[1]; 1 mg/kg ip on day 1
  T/C % (survival time treated/controls × 100): 75% and 90%
  Toxic deaths: 7/16
[1]; 5 mg/kg ip on day 1
  T/C % (survival time treated/controls × 100): 55%
  Toxic deaths: 8/8
[1]; administered ip
  optimal doses: 0.25 to 0.5 mg/kg
[1]; administered ip, mice bearing P388 ascitic leukemia
  potency relative to doxorubicin, ip: 10-20 times
[1]; ip, 0.25-0.5 mg/kg vs doxorubicin from 4 to 10 mg/kg
  antitumor activity compared with doxorubicin: antitumor activity of the same order of magnitude as that of doxorubicin
[2]; 0.9 mg/kg iv on day 1
  T/C % (survival time treated/controls × 100): 183%
  Toxic deaths: 0/10
[2]; 1.2 mg/kg iv on day 1
  T/C % (survival time treated/controls × 100): 191%
  Toxic deaths: 0/10
[2]; 1.56 mg/kg iv on day 1
  T/C % (survival time treated/controls × 100): 116%
  Toxic deaths: 6/10
[2]; in comparison with doxorubicin
  activity against L1210 leukemia in comparison with doxorubicin (summary, words): more active against L1210 leukemia
[2]; iv
  tolerated doses: 0.9 mg/kg and 1.2 mg/kg
[2]; iv, tolerated doses 0.9 and 1.2 mg/kg vs doxorubicin 13 mg/kg
  effectiveness compared with doxorubicin: more effective than doxorubicin
[3]; i.v. 0.35 mg/kg
  T/C % (survival time treated/controls × 100): 100%
  Toxic deaths: 0/8
[3]; i.v. 0.53 mg/kg
  T/C % (survival time treated/controls × 100): 108%
  Toxic deaths: 0/8
[3]; i.v. 0.8 mg/kg
  T/C % (survival time treated/controls × 100): 116%
  Toxic deaths: 0/10
[3]; i.v. 1.2 mg/kg
  Toxic deaths: 0/20
[3]; i.v. 1.2 mg/kg, 1.2 mg/kg
  T/C % (survival time treated/controls × 100): 150% and 208%
[3]; i.v. 1.8 mg/kg
  T/C % (survival time treated/controls × 100): 133%
  Toxic deaths: 9/10
[3]; i.v. 2.7 mg/kg
  T/C % (survival time treated/controls × 100): 116%
  Toxic deaths: 10/10
[3]; oral 2.7 mg/kg
  T/C % (survival time treated/controls × 100): 150%
  Toxic deaths: 1/8
[3]; oral 5.4 mg/kg
  T/C % (survival time treated/controls × 100): 133%
  Toxic deaths: 4/6
[3]; oral 10.8 mg/kg
  T/C % (survival time treated/controls × 100): 100%
  Toxic deaths: 5/5
[3]; oral, Gross leukemia
  activity by oral route: active also when given by oral route
[5]; administered iv
  potency relative to doxorubicin, iv: about 10 times
[5]; both i.p. and i.v. administration
  potency in vivo in comparison with doxorubicin (summary, words): more potent in vivo (both i.p. and i.v. administration)
[5]; in vivo, with reference to doxorubicin
  potency in vivo relative to doxorubicin: about 10 times
[5]
  activity by oral route: active also when administered orally
[5]; listed as 4-demethoxy-4'-deoxydoxorubicin
  activity by oral route: active also when given by oral route
[4]; HeLa cells cloning efficiency, more cytotoxic than doxorubicin
  cytotoxicity relative to doxorubicin: about 25 times
[4]; [6]
  activity at 20 pg/mL: 102%
  activity at 90 pg/mL: 72%
  activity at 0.00039 µg/mL: 69%
  activity at 0.0015 µg/mL: 26%
  activity at 0.0062 µg/mL: 1%
  activity at 0.025 µg/mL: 0%
[4]; Homo sapiens, HeLa, 24 h
  IC50: ~0.4 ng/mL (≈ 0.804 nM)
[4]; in comparison with doxorubicin
  potency in vitro in comparison with doxorubicin (summary, words): more potent in vitro
[4]; in vitro, with reference to doxorubicin
  potency in vitro relative to doxorubicin: 10-20 times
